Source: patent US5840936A, “Aminosterol compounds useful as inhibitors of the sodium/proton exchanger (NHE)” (priority 1995, dated 1998)
“Also recorded” adds a separate entry of the source.

How the values were obtained:
[1] = tested on: chick embryo vitelline capillaries; assay: Chick embryo vitelline capillary regression assay; assay type: in vivo; set-up: key to Vitelline capillary regression: +: Vascular reactivity; 0: No vascular reactivity; +/-: Equivocal reactivity
Method: Using the chick embryo vitelline capillaries assay, compounds were tested for their ability to induce capillary regression. Each compound was applied in 0.1 ml of 15% Ficol 400 and PBS onto the embryo, and vascular regression was assessed after 60 minutes.
The 3-day chick embryo consists of an embryonic disc from which numerous vessels emerge and return, forming a "FIG. 8"-shaped structure--the embryo in the center with vascular loops extending outward over both poles. […] Following a lag period of around 15 minutes, the constriction of continuity between capillary and secondary vessels, generally on the "venous" side, was observed. Continued pulsatile blood flow progressed, resulting in a "swelling" of the blind tube, followed by a pinching off of the remaining connection and formation of an enclosed vascular sac resembling a "blood island." This process progressed until only the largest vessels remained intact.

[2] = tested on: Xenopus tadpoles, stage 59-60; assay: Xenopus tadpole assay; conditions: for Tadpole assay, observed effects: 10 μg/ml; for Pharmacologic similarity in tadpole assay: in vivo
[3] = Fasting blood glucose in mice; assay type: in vivo, male CD-1 mice
Method: To study the effect of steroid administrator or the NHE responsible for secretion of insulin, several of the aminosterols from shark liver were administered to fasting mice. Male CD-1 mice were assigned to one of four treatment groups. Whole blood glucose was tested using glucometer (Lifescan Glucometer II and One Touch test strips). Statistical analysis was via one-way analysis of variance (ANOVA) followed by subsequent Bonferonni's t-test.

[4] = target: NHE3; conditions: cited from earlier work
[5] = tested on: L1210 lymphoblastic leukemia; assay: Mouse model of L1210 leukemia; conditions: mouse, in vivo
Description: C57B mice were inoculated with L1210 lymphoblastic leukemia cells at an inoculum that causes leukemia in 100% of animals.

[6] = tested on: HM; assay: HM MTT assay; assay type: cell-based; conditions: Table II; read-out: HM MTT assay, Minimum Effective Concentration
[7] = target: NHE1; conditions: cited from earlier work
[8] = target: NHE2; conditions: cited from earlier work

CC(COS(=O)(=O)O)C(=O)CC[C@@H](C)[C@H]1CC[C@H]2[C@@H]3[C@H](O)C[C@H]4C[C@@H](NCCCNCCCCN)CC[C@]4(C)[C@H]3CC[C@]12C (single isomer, unassigned) [Compound 1360]
Vitelline capillary regression ([1]; 1 μg applied): 0 | Effect on chick embryo vessels ([1]; 3- to 5-day chick embryo): the blood circulating through the embryonic vessels exhibited a brighter red color, reflecting a higher degree of oxygenation | Tadpole assay, observed effects [2]: Swelling and lysis of certain erythrocytes occurred; also recorded: extensive vasocclusion occurred within 60 minutes throughout the tail

CC(C)C(CO)(CC[C@@H](C)[C@H]1CC[C@H]2[C@@H]3[C@H](O)C[C@H]4C[C@@H](NCCCNCCCCN)CC[C@]4(C)[C@H]3CC[C@]12C)OS(=O)(=O)O (single isomer, unassigned) [Compound 1437]
Hyperglycemia ([3]; i.v., 1436 in D5W, 1437 in water): caused hyperglycemia in mice | Fasting Blood Glucose Mean ± SEM ([3]; total dose 20 mg/kg i.v. (2 × 10 mg/kg), 30 min. after 2d dose): 82 ± 15.3 mg/dL | Tadpole assay, observed effects [2]: Epithelium covering the embryonic portions of the animal, such as the tail and antennae, began to slough off in sheets; also recorded: the larval skin was observed to shed off in a sheet

N=C(N)NC(=O)c1nc(Cl)c(N)nc1N [Amiloride]
Ki [4]: 100 µM

N.N.[Cl][Pt][Cl] [Cisplatin, reference compound]
Hematological profile [5]: profound anemia by day 28

CC(C)CCC[C@@H](C)[C@H]1CC[C@H]2[C@@H]3CC[C@H]4C[C@@H](NCCCNCCCCN)CC[C@]4(C)[C@H]3CC[C@]12C [Compound 303]
Vitelline capillary regression ([1]; 1 μg applied): 0

C[C@H](CCC(=O)O)[C@H]1CC[C@H]2[C@@H]3CC[C@H]4C[C@H](NCCCNCCCCN)CC[C@]4(C)[C@H]3CC[C@]12C [Compound 318]
Vitelline capillary regression ([1]; 1 μg applied): 0

CC(C)CCC[C@@H](C)[C@H]1CC[C@H]2[C@@H]3[C@H](O)C[C@H]4C[C@@H](N)CC[C@]4(C)[C@H]3CC[C@]12C [Compound 364]
Vitelline capillary regression ([1]; 0.001 μg applied): 0 | Vitelline capillary regression ([1]; 0.01 μg applied): 0 | Vitelline capillary regression ([1]; 0.1 μg applied): 0 | Vitelline capillary regression ([1]; 1 μg applied): + | Vitelline capillary regression ([1]; 10 μg applied): + | Chick embryo diss. assay, Minimum Effective Concentration ([1]; Table II): 1 µg

CC(C)CCC[C@@H](C)[C@H]1CC[C@H]2[C@@H]3[C@H](O)C[C@H]4C[C@H](NCCCNCCCCN)CC[C@]4(C)[C@H]3CC[C@]12C [Compound 370]
Pharmacologic similarity in tadpole assay [2]: pharmacologic activity similar to that seen for FX 3

CC(C)CCC[C@@H](C)[C@H]1CC[C@H]2[C@@H]3[C@H](O)C[C@H]4C[C@@H](NCCCNCCCCN)CC[C@]4(C)[C@H]3CC[C@]12C [Compound 371]
Vitelline capillary regression ([1]; 0.001 μg applied): 0 | Vitelline capillary regression ([1]; 0.01 μg applied): 0 | Vitelline capillary regression ([1]; 0.1 μg applied): 0 | Vitelline capillary regression ([1]; 1 μg applied): +/- | Vitelline capillary regression ([1]; 10 μg applied): + | Pharmacologic similarity in tadpole assay [2]: effects like those produced by compound 1436

C[C@H](CCC(=O)O)[C@H]1CC[C@H]2[C@@H]3[C@H](O)C[C@H]4C[C@@H](NCCCNCCCCN)CC[C@]4(C)[C@H]3CC[C@]12C [Compound 381]
Vitelline capillary regression ([1]; 1 μg applied): 0

C[C@H](CCC(=O)O)[C@H]1CC[C@H]2[C@@H]3[C@H](O)C[C@H]4C[C@H](NCCCNCCCCN)CC[C@]4(C)[C@H]3CC[C@]12C [Compound 382]
Vitelline capillary regression ([1]; 0.001 μg applied): 0 | Vitelline capillary regression ([1]; 0.01 μg applied): 0 | Vitelline capillary regression ([1]; 0.1 μg applied): 0 | Vitelline capillary regression ([1]; 1 μg applied): + | Vitelline capillary regression ([1]; 10 μg applied): +

COC(=O)CC[C@@H](C)[C@H]1CC[C@H]2[C@@H]3[C@H](O)C[C@H]4C[C@@H](NCCCNCCCCNCCCN)CC[C@]4(C)[C@H]3CC[C@]12C [Compound 396]
Vitelline capillary regression ([1]; 0.001 μg applied): 0 | Vitelline capillary regression ([1]; 0.01 μg applied): 0 | Vitelline capillary regression ([1]; 0.1 μg applied): 0 | Vitelline capillary regression ([1]; 1 μg applied): +

COC(=O)CC[C@@H](C)[C@H]1CC[C@H]2[C@@H]3[C@H](O)C[C@@H]4C[C@@H](NCCN)CC[C@]4(C)[C@H]3CC[C@]12C [Compound 409]
Vitelline capillary regression ([1]; 1 μg applied): 0 | Pharmacologic similarity in tadpole assay [2]: functionally similar to compound 1437

COC(=O)CC[C@@H](C)[C@H]1CC[C@H]2[C@@H]3[C@H](O)C[C@@H]4C[C@H](NCCN)CC[C@]4(C)[C@H]3CC[C@]12C [Compound 410]
Vitelline capillary regression ([1]; 0.001 μg applied): 0 | Vitelline capillary regression ([1]; 0.01 μg applied): +/- | Vitelline capillary regression ([1]; 0.1 μg applied): +/- | Vitelline capillary regression ([1]; 1 μg applied): + | minimal effective concentration [6]: 2.6 µg/mL | Pharmacologic similarity in tadpole assay [2]: functionally similar to compound 1437

COC(=O)CC[C@@H](C)[C@H]1CC[C@H]2[C@@H]3[C@H](O)C[C@@H]4C[C@@H](NCCCNCCCCNCCCN)CC[C@]4(C)[C@H]3CC[C@]12C [Compound 411]
Vitelline capillary regression ([1]; 0.001 μg applied): 0 | Vitelline capillary regression ([1]; 0.01 μg applied): 0 | Vitelline capillary regression ([1]; 0.1 μg applied): 0 | Vitelline capillary regression ([1]; 1 μg applied): +/-

C[C@H](CCC(=O)O)[C@H]1CC[C@H]2[C@@H]3[C@H](O)C[C@@H]4C[C@H](NCCCNCCCCNCCCN)CC[C@]4(C)[C@H]3CC[C@]12C [Compound 412]
Vitelline capillary regression ([1]; 0.001 μg applied): 0 | Vitelline capillary regression ([1]; 0.01 μg applied): 0 | Vitelline capillary regression ([1]; 0.1 μg applied): 0 | Vitelline capillary regression ([1]; 1 μg applied): + | minimal effective concentration [6]: 18.1 µg/mL | Pharmacologic similarity in tadpole assay [2]: pharmacologic activity similar to that seen for FX 3

C[C@H](CCC(=O)O)[C@H]1CC[C@H]2[C@@H]3[C@H](O)C[C@@H]4C[C@@H](NCCCNCCCCNCCCN)CC[C@]4(C)[C@H]3CC[C@]12C [Compound 413]
Vitelline capillary regression ([1]; 1 μg applied): 0 | Pharmacologic similarity in tadpole assay [2]: effects like those produced by compound 1436

C[C@H](CCC(=O)O)[C@H]1CC[C@H]2[C@@H]3[C@H](O)C[C@@H]4C[C@H](NCCN)CC[C@]4(C)[C@H]3CC[C@]12C [Compound 414]
Vitelline capillary regression ([1]; 1 μg applied): 0 | Pharmacologic similarity in tadpole assay [2]: potencies comparable to that of Fraction 1

C[C@H](CCC(=O)O)[C@H]1CC[C@H]2[C@@H]3[C@H](O)C[C@@H]4C[C@@H](NCCN)CC[C@]4(C)[C@H]3CC[C@]12C [Compound 415]
Vitelline capillary regression ([1]; 0.001 μg applied): 0 | Vitelline capillary regression ([1]; 0.01 μg applied): + | Vitelline capillary regression ([1]; 0.1 μg applied): + | Vitelline capillary regression ([1]; 1 μg applied): +

COC(=O)CC[C@@H](C)[C@H]1CC[C@H]2[C@@H]3CC[C@@H]4C[C@H](NCCN)CC[C@]4(C)[C@H]3C[C@H](O)[C@]12C [Compound 416]
minimal effective concentration [6]: 2.4 µg/mL | Pharmacologic similarity in tadpole assay [2]: functionally similar to compound 1437

COC(=O)CC[C@@H](C)[C@H]1CC[C@H]2[C@@H]3C[C@@H](O)[C@H]4C[C@H](NCCN)CC[C@]4(C)[C@H]3CC[C@]12C [Compound 431]
Pharmacologic similarity in tadpole assay [2]: functionally similar to compound 1437

COC(=O)CC[C@@H](C)[C@H]1CC[C@H]2[C@@H]3C[C@@H](O)[C@H]4C[C@@H](NCCN)CC[C@]4(C)[C@H]3CC[C@]12C [Compound 432]
Pharmacologic similarity in tadpole assay [2]: functionally similar to compound 1437

C[C@H](CCC(=O)O)[C@H]1CC[C@H]2[C@@H]3C[C@@H](O)[C@H]4C[C@@H](NCCN)CC[C@]4(C)[C@H]3CC[C@]12C [Compound 433]
Pharmacologic similarity in tadpole assay [2]: functionally similar to compound 1437

COC(=O)CC[C@@H](C)[C@H]1CC[C@H]2[C@@H]3CC[C@H]4C[C@H](NCCCNCCCCNCCCN)CC[C@]4(C)[C@H]3CC[C@]12C [Compound 458]
minimal effective concentration [6]: 6.8 µg/mL | Pharmacologic similarity in tadpole assay [2]: pharmacologic activity similar to that seen for FX 3

COC(=O)CC[C@@H](C)[C@H]1CC[C@H]2[C@@H]3CC[C@H]4C[C@@H](NCCCNCCCCNCCCN)CC[C@]4(C)[C@H]3CC[C@]12C [Compound 459]
minimal effective concentration [6]: 5 µg/mL | Pharmacologic similarity in tadpole assay [2]: pharmacologic activity similar to that seen for FX 3

COC(=O)CC[C@@H](C)[C@H]1CC[C@H]2[C@@H]3C[C@@H](O)[C@H]4C[C@H](NCCCNCCCCNCCCN)CC[C@]4(C)[C@H]3CC[C@]12C [Compound 465]
Pharmacologic similarity in tadpole assay [2]: pharmacologic activity similar to that seen for FX 3

COC(=O)CC[C@@H](C)[C@H]1CC[C@H]2[C@@H]3C[C@@H](O)[C@H]4C[C@@H](NCCCNCCCCNCCCN)CC[C@]4(C)[C@H]3CC[C@]12C [Compound 466]
Pharmacologic similarity in tadpole assay [2]: pharmacologic activity similar to that seen for FX 3

CC(C)CCC[C@@H](C)[C@H]1CC[C@H]2[C@@H]3[C@H](O)C[C@H]4C[C@H](N)CC[C@]4(C)[C@H]3CC[C@]12C [Compound 1363]
Pharmacologic similarity in tadpole assay [2]: potencies comparable to that of Fraction 1

CN(C)c1nc(N)c(C(=O)N=C(N)N)nc1Cl [DMA, dimethylamiloride]
Ki [7]: 100 nM | Ki [8]: 700 nM | Ki [4]: 11 µM

CCCN(C)c1nc(N)c(C(=O)N=C(N)N)nc1Cl [MPA, methylpropylamiloride]
Ki [7]: 80 nM | Ki [8]: 5000 nM | Ki [4]: 10 µM
